# From ChEMBL document CHEMBL1201862, “PubChem BioAssay data set” (2004)
# Active and inactive are the calls of the source.
# Experiments:
# Kallikrein-7 = Kallikrein-7 (Homo sapiens, UniProt P49862); test: Fluorescence Intensity-based biochemical primary high throughput dose response assay to identify activators of kallikrein-7 (K7) zymogen.
# [1] = molecular target: Ras and Rab interactor 1/Tyrosine-protein kinase ABL1 (Homo sapiens, UniProt P00519+Q13671); type: functional;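 note: biochemical TR-FRET dose-response test measuring inhibition of binding between Rin1 and Abl proteins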
# cells [2] = type: functional, cell-based
# [3] = molecular target: T1, Trace amine-associated receptor 1 (Homo sapiens, UniProt Q96RJ0); test: Fluorescence-based cell-based high throughput dose response assay to identify agonists of the human trace amine associated receptor 1 (TAAR1).; type: functional
# T1 sequence (Q96RJ0 whole entry): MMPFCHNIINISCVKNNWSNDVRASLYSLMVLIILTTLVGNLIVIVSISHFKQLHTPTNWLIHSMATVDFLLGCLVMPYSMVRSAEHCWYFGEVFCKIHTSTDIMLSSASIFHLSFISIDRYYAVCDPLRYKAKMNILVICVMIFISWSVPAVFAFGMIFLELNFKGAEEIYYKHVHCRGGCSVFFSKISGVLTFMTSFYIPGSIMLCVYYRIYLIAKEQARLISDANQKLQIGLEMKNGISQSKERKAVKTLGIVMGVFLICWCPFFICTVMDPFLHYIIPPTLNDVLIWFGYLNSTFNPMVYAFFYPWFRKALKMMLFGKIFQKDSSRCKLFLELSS
# cells [4] = type: functional, cell-based; remark: listed apart in the source
# [5] = molecular target: T1, Trace amine-associated receptor 1; test: Counterscreen for agonists of the human trace amine associated receptor 1 (hTAAR1): Fluorescence-based cell-based high throughput dose response assay to identify hTAAR1 agonist that also desensitize TAAR1 receptor response.; type: functional
# [6] = P. falciparum Dd2 growth inhibitors, dose response, SYBR Green, dry powder samples, set 9 (AID 1159568); type: functional, cell-based
# [7] = molecular target: 5-hydroxytryptamine receptor 2A (Mus musculus, UniProt P35363); type: functional, cell-based;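 note: CHO-K1 cells with tagged receptor and beta-arrestin; agonist potency measured as compound-induced activation of the receptor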
# 5-hydroxytryptamine receptor 2A, sequence (P35363 whole entry): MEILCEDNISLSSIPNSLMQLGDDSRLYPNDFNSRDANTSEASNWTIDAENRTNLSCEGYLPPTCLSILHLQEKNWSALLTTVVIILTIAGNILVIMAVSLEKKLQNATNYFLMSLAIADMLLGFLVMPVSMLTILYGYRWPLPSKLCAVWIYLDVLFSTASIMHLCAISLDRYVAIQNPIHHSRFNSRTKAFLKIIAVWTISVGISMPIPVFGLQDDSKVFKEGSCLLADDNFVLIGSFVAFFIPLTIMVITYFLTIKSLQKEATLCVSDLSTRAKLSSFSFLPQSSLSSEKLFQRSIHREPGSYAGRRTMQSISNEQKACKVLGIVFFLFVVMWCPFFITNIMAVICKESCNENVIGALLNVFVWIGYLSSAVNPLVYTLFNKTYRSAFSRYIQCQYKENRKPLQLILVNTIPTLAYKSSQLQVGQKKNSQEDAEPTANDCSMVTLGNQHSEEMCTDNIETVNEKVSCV
# Mu-type opioid receptor = Mu-type opioid receptor (Homo sapiens, UniProt P35372); type: functional, cell-based;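 note: U2OS cells with beta-arrestin recruitment to OPRM1 by beta-gal complementation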
# Mu-type opioid receptor, sequence (P35372 whole entry, the tested form may be a part): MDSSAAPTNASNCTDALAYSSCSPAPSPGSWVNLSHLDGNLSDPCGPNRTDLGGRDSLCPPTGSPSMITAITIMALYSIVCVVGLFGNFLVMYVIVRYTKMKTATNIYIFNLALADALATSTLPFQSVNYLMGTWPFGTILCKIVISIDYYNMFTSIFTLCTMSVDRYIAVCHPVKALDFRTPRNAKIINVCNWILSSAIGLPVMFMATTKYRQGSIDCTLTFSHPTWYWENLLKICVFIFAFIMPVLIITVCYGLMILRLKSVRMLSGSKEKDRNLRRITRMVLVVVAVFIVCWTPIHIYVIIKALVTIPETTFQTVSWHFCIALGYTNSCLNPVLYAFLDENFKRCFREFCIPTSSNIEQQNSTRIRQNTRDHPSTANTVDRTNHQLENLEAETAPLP
# Fatty acid synthase [8] = molecular target: T2, Fatty acid synthase (Homo sapiens, UniProt P49327); test: FAS thioesterase domain inhibitors, dose response, biochemical, endpoint fluorescence intensity, uHTS hits (AID 624327); type: functional;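 note: fluorescence from hydrolysis of an O-methyl fluorescein acyl ester substrate by the enzyme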
# T2 sequence (P49327 whole entry, the tested form may be a part): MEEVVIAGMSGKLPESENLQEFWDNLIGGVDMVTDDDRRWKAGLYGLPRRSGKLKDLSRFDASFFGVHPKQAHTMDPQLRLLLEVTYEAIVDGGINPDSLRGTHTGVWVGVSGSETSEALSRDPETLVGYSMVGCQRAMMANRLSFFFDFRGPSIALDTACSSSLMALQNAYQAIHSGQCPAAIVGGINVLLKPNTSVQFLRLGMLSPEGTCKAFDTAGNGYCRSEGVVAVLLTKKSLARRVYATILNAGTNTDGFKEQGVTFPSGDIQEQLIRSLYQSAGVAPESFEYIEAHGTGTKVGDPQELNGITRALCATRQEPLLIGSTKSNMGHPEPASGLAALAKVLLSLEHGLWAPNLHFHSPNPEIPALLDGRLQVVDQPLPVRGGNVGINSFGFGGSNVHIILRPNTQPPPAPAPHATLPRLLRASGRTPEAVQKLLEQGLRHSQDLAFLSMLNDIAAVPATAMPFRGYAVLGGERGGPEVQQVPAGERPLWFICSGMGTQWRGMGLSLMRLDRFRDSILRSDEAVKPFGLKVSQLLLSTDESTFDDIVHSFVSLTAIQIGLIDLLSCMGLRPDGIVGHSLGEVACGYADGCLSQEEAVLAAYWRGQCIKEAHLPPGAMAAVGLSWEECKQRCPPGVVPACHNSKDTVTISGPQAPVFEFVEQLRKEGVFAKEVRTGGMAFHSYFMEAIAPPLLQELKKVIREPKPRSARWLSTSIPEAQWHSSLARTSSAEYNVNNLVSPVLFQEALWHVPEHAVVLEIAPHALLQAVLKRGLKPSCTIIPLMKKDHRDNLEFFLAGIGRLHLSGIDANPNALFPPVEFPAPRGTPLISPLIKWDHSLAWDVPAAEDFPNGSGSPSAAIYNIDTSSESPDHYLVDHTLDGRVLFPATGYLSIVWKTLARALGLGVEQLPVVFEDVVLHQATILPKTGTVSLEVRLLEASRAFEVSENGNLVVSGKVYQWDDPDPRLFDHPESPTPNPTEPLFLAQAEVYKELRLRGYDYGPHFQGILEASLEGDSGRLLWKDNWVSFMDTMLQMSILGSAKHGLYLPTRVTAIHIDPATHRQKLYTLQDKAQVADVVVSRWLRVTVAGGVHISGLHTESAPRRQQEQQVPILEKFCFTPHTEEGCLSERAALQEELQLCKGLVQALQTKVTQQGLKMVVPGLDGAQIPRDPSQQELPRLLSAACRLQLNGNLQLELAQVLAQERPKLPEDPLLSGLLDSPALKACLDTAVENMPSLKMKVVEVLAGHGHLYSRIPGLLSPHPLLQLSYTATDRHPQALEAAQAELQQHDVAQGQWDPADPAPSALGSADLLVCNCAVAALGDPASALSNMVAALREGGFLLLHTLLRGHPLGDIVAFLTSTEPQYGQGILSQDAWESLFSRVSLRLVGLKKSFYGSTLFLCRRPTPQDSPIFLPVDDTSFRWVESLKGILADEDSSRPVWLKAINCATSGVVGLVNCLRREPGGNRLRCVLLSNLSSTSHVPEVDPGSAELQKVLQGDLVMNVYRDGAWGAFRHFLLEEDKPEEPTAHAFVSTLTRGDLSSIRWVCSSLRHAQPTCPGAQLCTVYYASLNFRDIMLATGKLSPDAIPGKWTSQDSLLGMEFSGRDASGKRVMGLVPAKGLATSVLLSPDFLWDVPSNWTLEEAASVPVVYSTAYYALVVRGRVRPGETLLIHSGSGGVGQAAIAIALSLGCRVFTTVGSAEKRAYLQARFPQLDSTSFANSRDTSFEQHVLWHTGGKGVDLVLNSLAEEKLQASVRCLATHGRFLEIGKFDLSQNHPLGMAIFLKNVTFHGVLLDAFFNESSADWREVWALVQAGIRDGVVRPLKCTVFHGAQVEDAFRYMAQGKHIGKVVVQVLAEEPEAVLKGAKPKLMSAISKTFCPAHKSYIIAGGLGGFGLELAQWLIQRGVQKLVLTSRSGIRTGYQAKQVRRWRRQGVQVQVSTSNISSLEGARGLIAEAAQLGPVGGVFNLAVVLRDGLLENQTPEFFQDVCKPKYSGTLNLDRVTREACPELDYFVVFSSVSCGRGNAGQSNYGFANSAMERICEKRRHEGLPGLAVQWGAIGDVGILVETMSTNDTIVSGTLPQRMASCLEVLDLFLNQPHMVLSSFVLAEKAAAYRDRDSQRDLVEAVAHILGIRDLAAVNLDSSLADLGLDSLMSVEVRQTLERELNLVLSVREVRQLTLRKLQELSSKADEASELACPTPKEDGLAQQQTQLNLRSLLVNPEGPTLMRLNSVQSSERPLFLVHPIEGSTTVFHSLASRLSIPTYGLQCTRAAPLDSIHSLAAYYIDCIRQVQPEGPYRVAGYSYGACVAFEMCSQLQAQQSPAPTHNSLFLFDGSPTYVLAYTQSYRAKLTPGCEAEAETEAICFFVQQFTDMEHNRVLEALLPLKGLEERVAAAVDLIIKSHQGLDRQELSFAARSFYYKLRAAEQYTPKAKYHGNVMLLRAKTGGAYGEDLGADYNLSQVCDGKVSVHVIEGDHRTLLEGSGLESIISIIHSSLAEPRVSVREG
# [9] = MC4R antagonists, dose response, counter-screen for LGR2 antagonist project, cell-based, plate reader, cherry pick (AID 743444); type: functional;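 note: transfected HEK 293 cells stimulated with alpha-MSH peptide; potency of inhibitors of the alpha-MSH evoked signal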
# Fatty acid synthase [10] = molecular target: T2, Fatty acid synthase; test: FAS thioesterase domain inhibitors, dose response, biochemical, kinetic fluorescence intensity (AID 624326); type: functional;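 note: rate of fluorescence rise from hydrolysis of a fluorogenic O-methyl fluorescein ester substrate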
# [11] = HepG2 cell cytotoxicity, dose response, cytotoxicity control, plate reader, cherry-pick, antagonist series (AID 743416); type: functional, cell-based
# [12] = LGR2 antagonists, dose response, cell-based, HEK293, CRE-luciferase reporter, cherry pick, set 2 (AID 743343); type: functional;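 note: transfected cells were stimulated with diluted bursicon conditioned medium after compound addition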
# Protein Wnt-3a = Protein Wnt-3a (Mus musculus, UniProt P27467); test: Wnt3a-driven reporter signaling inhibition, dose response, selectivity assay for Gli-SUFU antagonist project, Wnt-LIGHT cells, luminescence (AID 651570); type: functional; details: read-out: IC50_Mean;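 note: Wnt-LIGHT reporter cells stimulated with conditioned medium from Wnt3a-producing cells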
# Protein Wnt-3a, sequence (P27467 whole entry): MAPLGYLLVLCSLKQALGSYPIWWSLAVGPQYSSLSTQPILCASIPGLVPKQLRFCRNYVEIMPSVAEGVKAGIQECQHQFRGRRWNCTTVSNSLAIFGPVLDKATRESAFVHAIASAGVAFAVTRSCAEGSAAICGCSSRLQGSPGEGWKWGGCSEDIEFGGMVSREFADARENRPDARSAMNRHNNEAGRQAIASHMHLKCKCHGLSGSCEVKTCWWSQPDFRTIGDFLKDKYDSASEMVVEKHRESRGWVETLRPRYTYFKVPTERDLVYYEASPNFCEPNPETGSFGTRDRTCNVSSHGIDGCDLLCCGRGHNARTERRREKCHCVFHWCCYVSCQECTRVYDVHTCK
# [13] = inhibitors of intracellular T. cruzi replication, confirmation, NIH3T3 host cells, beta-gal luminescence (AID 2044); type: functional, cell-based;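 note: intracellular parasites grown in NIH/3T3 mouse fibroblasts as host cells; luminescent beta-galactosidase reporter signal from transgenic T. cruzi replicating inside host cells; inhibitors lower the luminescence signal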
# [14] = NIH-3T3 fibroblast cytotoxicity, dose response, cytotoxicity control, cell-based, fluorescence, Alamar Blue, secondary assay (AID 2327); type: functional;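 note: NIH-3T3 mouse fibroblasts cultured with fluconazole at 8 µg/mL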
# cells [15] = test: cells
# [16] = cytotoxicity toward NIH3T3 fibroblasts, dose response, counter-screen, cell-based, ATP luminescence, mouse fibroblasts (AID 2010); type: functional;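 note: cells exposed to compound for about 90 hours before reading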
# [17] = C. albicans growth with fluconazole, confirmation, fluorescence, retest (AID 2467); type: functional, cell-based
# [18] = molecular target: T3, Microphthalmia-associated transcription factor (Homo sapiens, UniProt O75030); test: TRPM1 promoter luciferase signal decrease, dose response, MITF inhibitor project, cell-based, SK-MEL-5, cherry-picked, set 3 (AID 493073); type: functional
# T3 sequence (O75030 whole entry): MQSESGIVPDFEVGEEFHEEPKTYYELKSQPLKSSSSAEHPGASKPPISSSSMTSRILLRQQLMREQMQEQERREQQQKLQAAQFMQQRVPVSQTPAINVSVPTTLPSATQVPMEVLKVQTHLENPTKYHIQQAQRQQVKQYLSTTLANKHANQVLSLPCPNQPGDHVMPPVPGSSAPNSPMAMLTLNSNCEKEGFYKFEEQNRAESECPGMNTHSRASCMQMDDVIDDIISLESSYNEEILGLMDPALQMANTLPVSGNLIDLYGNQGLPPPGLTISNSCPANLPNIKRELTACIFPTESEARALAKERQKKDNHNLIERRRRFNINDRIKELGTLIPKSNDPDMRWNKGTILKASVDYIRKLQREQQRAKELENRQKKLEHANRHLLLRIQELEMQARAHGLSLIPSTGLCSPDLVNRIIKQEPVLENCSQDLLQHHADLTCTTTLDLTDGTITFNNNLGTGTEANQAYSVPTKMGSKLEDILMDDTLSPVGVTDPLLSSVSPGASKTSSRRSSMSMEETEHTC
# Protein Tat = molecular target: T4, Protein Tat (Human immunodeficiency virus type 1 group M subtype B (isolate HXB2)(HIV-1), UniProt P04608); type: functional;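 note: tat binding to TAR RNA read out by fluorescence polarization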
# T4 sequence (P04608 whole entry): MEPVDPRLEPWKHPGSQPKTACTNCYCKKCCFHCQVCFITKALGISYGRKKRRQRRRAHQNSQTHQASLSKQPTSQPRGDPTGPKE
# [19] = THP-1 cell cytotoxicity, dose response, cytotoxicity control for Vif-APOBEC3G degradation inhibitor project, THP-1 cells (AID 1117359); type: functional; details: Human immunodeficiency virus 1, THP-1
# [20] = cytotoxicity toward DRD oncogenic fibroblasts, dose response, cell-based, non-viral oncogenic, luminescence (AID 1934); type: functional; details: Homo sapiens
# BJ [21] = test: cytotoxicity toward Ras-transformed BJeLR fibroblasts, dose response, cell-based, alamar blue fluorescence, cherrypicked samples (AID 2631); type: functional; details: Homo sapiens;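 note: confirmatory dose-response assay in RAS-dependent BJ fibroblasts engineered with TERT, LT and ST, with cytotoxicity read by fluorescence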
# BJ [22] = test: cytotoxicity toward BJ-TERT fibroblasts, dose response, cell-based, RAS-independent, luminescence (AID 1933); type: functional; details: Homo sapiens
# [23] = non-specific cell cytotoxicity, dose response, cytotoxicity control for PAX8 inhibitor project, plate reader, dry powder samples (AID 743021); type: functional, cell-based
# Paired box protein Pax-8 = Paired box protein Pax-8 (Homo sapiens, UniProt Q06710); test: inhibitors of PAX8-driven TPO luciferase reporter, dose response, RMG-I cells, cherry-pick (AID 687027); type: functional, cell-based;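 note: luciferase reporter driven by Pax8 target thyroperoxidase promoter measured by SteadyGlo luminescence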
# Paired box protein Pax-8, sequence (Q06710 whole entry): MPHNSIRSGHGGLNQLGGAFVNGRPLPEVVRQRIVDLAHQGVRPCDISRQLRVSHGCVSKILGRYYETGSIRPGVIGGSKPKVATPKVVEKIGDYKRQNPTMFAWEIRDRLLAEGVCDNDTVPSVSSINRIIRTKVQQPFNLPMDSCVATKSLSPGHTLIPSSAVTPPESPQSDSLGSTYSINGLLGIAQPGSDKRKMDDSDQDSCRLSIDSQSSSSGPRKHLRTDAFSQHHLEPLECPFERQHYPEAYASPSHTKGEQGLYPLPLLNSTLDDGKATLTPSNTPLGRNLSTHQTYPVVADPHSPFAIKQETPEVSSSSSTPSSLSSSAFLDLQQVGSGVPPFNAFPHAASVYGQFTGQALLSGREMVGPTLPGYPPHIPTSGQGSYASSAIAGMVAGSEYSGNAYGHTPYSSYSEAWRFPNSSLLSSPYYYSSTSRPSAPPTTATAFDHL
# BJ [24] = test: cytotoxicity toward BJ-TERT-LT-ST fibroblasts, dose response, cell-based, RAS-independent, luminescence (AID 1935); type: functional; details: Homo sapiens;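 note: BJ fibroblasts immortalized with TERT plus LT and ST oncogenes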
# BJ [25] = test: cells; type: functional, cell-based; details: Homo sapiens
# [26] = molecular target: T5, Low molecular weight phosphotyrosine protein phosphatase (Homo sapiens, UniProt P24666); type: functional; details: read-out: IC50_Mean;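 note: Dose-response confirmation assay measuring inhibition of LMPTP enzyme activity by fluorescence intensity read-out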
# T5 sequence (P24666 whole entry): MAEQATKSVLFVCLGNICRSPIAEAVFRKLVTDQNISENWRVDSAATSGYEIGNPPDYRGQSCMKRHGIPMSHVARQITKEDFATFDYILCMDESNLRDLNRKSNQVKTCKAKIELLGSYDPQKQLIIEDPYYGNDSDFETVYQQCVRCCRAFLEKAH
# [27] = inhibitors of clade B AD8 Env fusion, dose response, cell-based, cherry-pick (AID 652062); type: functional;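 note: luciferase signal from cell-cell fusion driven by HIV-1 clade B AD8 Env; potency is for inhibitors of fusion seen as a drop in luminescence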
# [28] = ZM109 Env clade C HIV-1 fusion inhibitors, dose response, HeLa effector, CEM target cells, luciferase, cherry-pick (AID 652058); type: functional, cell-based
# [29] = inhibitors of HIV Env-driven cell fusion, dose response, cherry-pick (AID 652057); type: functional, cell-based
# [30] = off-target signal loss in HeLa-CEM21 co-culture – HeLa F-luc CTL cells, cherry-picked, counter-screen for HIV-1 Env fusion inhibitor project, dose response (AID 652040); type: functional, cell-based;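 note: potency for signal decrease marking cytotoxic or nonspecific inhibition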
# [31] = molecular target: T6, High affinity choline transporter 1 (Homo sapiens, UniProt Q9GZV3); test: CHT inhibitors, dose response, cell-based, 5-point CRC, membrane potential dye (AID 504840); type: functional
# T6 sequence (Q9GZV3 whole entry): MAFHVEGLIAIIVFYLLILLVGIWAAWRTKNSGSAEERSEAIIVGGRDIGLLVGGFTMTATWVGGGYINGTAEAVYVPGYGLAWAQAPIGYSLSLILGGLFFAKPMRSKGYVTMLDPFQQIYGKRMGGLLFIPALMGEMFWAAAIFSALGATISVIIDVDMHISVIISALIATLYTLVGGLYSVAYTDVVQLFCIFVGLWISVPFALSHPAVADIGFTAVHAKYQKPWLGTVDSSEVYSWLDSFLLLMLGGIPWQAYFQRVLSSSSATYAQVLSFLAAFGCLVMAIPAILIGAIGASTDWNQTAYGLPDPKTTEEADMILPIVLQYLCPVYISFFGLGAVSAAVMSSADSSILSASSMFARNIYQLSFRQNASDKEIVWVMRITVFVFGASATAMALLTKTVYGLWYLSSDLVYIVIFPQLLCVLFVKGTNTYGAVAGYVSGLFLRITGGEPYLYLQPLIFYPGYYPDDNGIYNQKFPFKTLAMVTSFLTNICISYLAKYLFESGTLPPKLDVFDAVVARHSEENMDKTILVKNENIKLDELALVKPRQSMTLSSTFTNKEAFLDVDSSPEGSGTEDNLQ
# INS1 = test: beta cell apoptosis inhibitors, cytokine rescue, dose response, luminescence, retest (AID 449756); type: functional, cell-based; details: Rattus norvegicus;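 note: cell death triggered by IL-1 beta plus TNF-alpha plus IFN-gamma mixture; protective hits raise ATP signal compared with cytokine alone wells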
# Kallikrein-7, sequence (P49862 whole entry): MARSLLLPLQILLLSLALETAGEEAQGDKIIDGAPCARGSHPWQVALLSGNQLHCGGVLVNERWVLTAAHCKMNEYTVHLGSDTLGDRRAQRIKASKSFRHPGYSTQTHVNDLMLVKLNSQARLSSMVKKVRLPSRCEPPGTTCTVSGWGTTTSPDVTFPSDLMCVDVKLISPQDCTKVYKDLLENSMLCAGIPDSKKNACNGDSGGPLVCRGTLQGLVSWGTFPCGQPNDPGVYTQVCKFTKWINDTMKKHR
smiles,measurement,setting,value
Cc1ccc(/C=N/c2ccccc2C(N)=O)cc1,EC50,Kallikrein-7,> 69.5 µM (inactive)
CCOC(=O)CCCCC(=O)c1[nH]c(=O)[nH]c1CSCCO,IC50,[1],0.695 µM (active)
O=C(NC1CCCCC1)C(=S)NCCc1ccccc1,EC50,cells [2],> 29.9 µM (inactive)
same,EC50,[3],2.41 µM (active)
same,IC50,cells [4],> 29.9 µM (inactive)
same,IC50,[5],5.49 µM (active)
COc1ccc(NC(=O)N(C)C[C@H]2Oc3c(NC(=O)CCCCCC(=O)Nc4ccccc4N)cccc3C(=O)N([C@H](C)CO)C[C@H]2C)cc1,AC50,[6],0.304 µM (active)
Cc1ccn2c(=O)c(C(=O)NCCC3=CCCCC3)c(O)nc2c1,EC50,cells [2],> 29.9 µM (inactive)
same,EC50,[3],3.44 µM (active)
same,IC50,cells [4],> 29.9 µM (inactive)
same,IC50,[5],> 29.9 µM (inactive)
OC(COCc1cccs1)CN1CCN(c2ccccn2)CC1 (stereo not drawn),EC50,[7],0.637 µM (active)
same,EC50,Mu-type opioid receptor,92.5 µM (inactive)
O=C(O)/C=C/C(=O)NCCc1ccc(Cl)cc1,EC50,cells [2],> 29.9 µM (inactive)
same,EC50,[3],51.7 µM (inactive)
same,IC50,cells [4],> 29.9 µM (inactive)
same,IC50,[5],> 29.9 µM (inactive)
O=Cc1cn(Cc2cccc([N+](=O)[O-])c2)c2ccccc12,IC50,Fatty acid synthase [8],12 µM (active)
same,AC50,[9],0.801 µM (active)
same,IC50,Fatty acid synthase [10],10.9 µM (active)
same,AC50,[11],0.625 µM (active)
same,AC50,[12],1.28 µM (active)
C[C@H](O)[C@@H]1C(=O)N2CCc3c([nH]c4ccccc34)[C@@H]2C[C@@H]1N(C)S(=O)(=O)c1ccccc1,EC50,Kallikrein-7,7.44 µM (active)
CN(Cc1c(F)cccc1Cl)C(=O)CNC(=O)c1ccc2c(c1)OCO2,IC50,[1],6.04 µM (active)
Cc1ccc(S(=O)(=O)NCCC2=CCCCC2)cc1C(N)=O,IC50,Protein Wnt-3a,10.8 µM (active)
CC(=O)c1ccc(OCC(O)CN2CCN(c3ccccn3)CC2)cc1 (stereo not drawn),EC50,[7],0.865 µM (active)
same,EC50,Mu-type opioid receptor,92.4 µM (inactive)
COc1ccccc1C#Cc1ccc([C@@H]2[C@@H](CO)N3CCCCN(C(=O)C4CCC4)C[C@H]23)cc1,AC50,[6],8.41 µM (active)
CCOc1ccc(-c2cc(C)[n+](CCO)c(-c3ccc(OCC)cc3)c2)cc1.[O-][Cl+3]([O-])([O-])[O-],EC50,[13],< 0.1 µM (active)
same,EC50,[14],> 160 µM (inactive)
same,EC50,cells [15],0.079 µM (active)
same,EC50,[16],> 60 µM (inconclusive)
same,EC50,[17],> 38 µM (not active)
same,IC50,Protein Wnt-3a,50 µM (inactive)
same,AC50,[18],11.1 µM (active)
CCC(/C=C(\O)c1ccncc1)=N\c1ccc(O)cc1,IC50,Protein Tat,18.3 µM (inconclusive)
same,CC50,[19],> 40 µM (active)
CCCCCCCN(C(=O)CCl)c1cccc(C)c1,EC50,[20],2.48 µM (inconclusive)
same,EC50,BJ [21],3.17 µM (active)
same,EC50,BJ [22],0.36 µM (inconclusive)
same,AC50,[23],9.19 µM (active)
same,AC50,Paired box protein Pax-8,5.91 µM (active)
same,EC50,BJ [24],> 75 µM (inconclusive)
same,EC50,BJ [25],3.93 µM (inconclusive)
CCCCn1nnnc1C(c1cc2ccccc2o1)N1CCN(c2cc(C)nc3ccccc23)CC1 (stereo not drawn),IC50,[26],9.12 µM (active)
CCOc1ccc(N(CC(=O)NCCSCc2ccc(Cl)cc2)S(C)(=O)=O)cc1,AC50,[27],5.88 µM (active)
same,AC50,[28],9.3 µM (active)
same,AC50,[29],5.62 µM (active)
same,AC50,[30],9.39 µM (active)
CC1(C(=O)NCc2cccc3ccccc23)CCN1Cc1ccc(-c2ccccc2)o1 (stereo not drawn),AC50,[27],2.57 µM (active)
same,AC50,[28],4.71 µM (active)
same,AC50,[29],2.31 µM (active)
same,AC50,[30],4.07 µM (active)
CCCOc1ccc(Br)cc1CSC(=N)N,IC50,[31],15.9 µM (active)
same,IC50,Protein Wnt-3a,9.88 µM (active)
same,AC50,INS1,6.45 µM (active)
Cc1ccc(CN2CCN(c3ccccn3)CC2)s1,EC50,[7],0.0593 µM (active)
same,EC50,Mu-type opioid receptor,92.5 µM (inactive)
